Assays:
[1] = target: T1, HsKRS (Homo sapiens, UniProt Q15046); test: biochemical; set-up: HsKRS lysine activation, pyrophosphate release with BIOMOL Green absorbance at 650 nm; conditions: read-out: HsKRS pIC50 (converted)
T1 construct: gene KARS1
Protocol: (§1) PfKRS assay wells contained PfKRS assay buffer (100 mM Hepes; pH 7.4, 100 mM NaCl, 20 mM MgCl2, 0.01% (v/v) Igepal and 1 mM DTT) plus 20 nM PfKRS, 200 μM ATP, 400 μM L-lysine, and 0.5 U/mL pyrophosphatase. HsKRS reactions contained HsKRS assay buffer (30 mM Tris; pH 8, 140 mM NaCl, 40 mM MgCl2, 30 mM KCl, 0.01% (v/v) Brij and 1 mM DTT) plus 400 nM HsKRS, 3.5 μM ATP, 6 μM L-lysine, and 0.5 U/mL pyrophosphatase. Assays were performed by adding 25 μL of assay buffer with enzyme to all assay wells, before the reaction was initiated with the addition of a 25 μL substrate mixture containing L-lysine, ATP, and pyrophosphatase (a substrate mix with L-lysine omitted was added to “no lysine” control wells on each assay plate). Following a 6 h (PfKRS) or 3 h (HsKRS) reaction at RT, the assay was stopped with the addition of 50 μL BIOMOL Green. The BIOMOL Green signal was allowed to develop for 30 min before the absorbance of each well was read at 650 nm using an EnVision multilabel plate reader (PerkinElmer Life Sciences) or a PheraStar plate reader (BMG). All [compound left out] dispensing steps were carried out using a Thermo Scientific WellMate dispenser (Matrix). To generate pIC50 data for hit compounds in the PfKRS or HsKRS assays, 10-point inhibitor dose–response curves were prepared in 384-well assay plates using an ECHO 550 acoustic dispenser (Labcyte). Following preparation of the inhibitor curves, assays were carried out as described above. ActivityBase from IDBS (version 8.0.5.4) was used for data processing and analysis, with percentage inhibition values determined relative to 100% inhibition (“no-lysine” control) and 0% inhibition control wells on each plate. All IC50 curve fitting was undertaken using ActivityBase XE (version 7.7.1) from IDBS. A four-parameter logistic dose–response curve was utilized (XLfit model 203) with prefit used for all four parameters.

[2] = target: T2, PfKRS (cytosolic lysyl tRNA synthetase) (Plasmodium falciparum, UniProt Q8IDJ8); test: biochemical; set-up: PfKRS lysine activation, pyrophosphate release with BIOMOL Green absorbance at 650 nm; conditions: read-out: PfKRS pIC50 (converted)
T2 construct: gene PF3D7_1350100
Protocol: as §1
Target sequence in this assay (Q8IDJ8 1-583): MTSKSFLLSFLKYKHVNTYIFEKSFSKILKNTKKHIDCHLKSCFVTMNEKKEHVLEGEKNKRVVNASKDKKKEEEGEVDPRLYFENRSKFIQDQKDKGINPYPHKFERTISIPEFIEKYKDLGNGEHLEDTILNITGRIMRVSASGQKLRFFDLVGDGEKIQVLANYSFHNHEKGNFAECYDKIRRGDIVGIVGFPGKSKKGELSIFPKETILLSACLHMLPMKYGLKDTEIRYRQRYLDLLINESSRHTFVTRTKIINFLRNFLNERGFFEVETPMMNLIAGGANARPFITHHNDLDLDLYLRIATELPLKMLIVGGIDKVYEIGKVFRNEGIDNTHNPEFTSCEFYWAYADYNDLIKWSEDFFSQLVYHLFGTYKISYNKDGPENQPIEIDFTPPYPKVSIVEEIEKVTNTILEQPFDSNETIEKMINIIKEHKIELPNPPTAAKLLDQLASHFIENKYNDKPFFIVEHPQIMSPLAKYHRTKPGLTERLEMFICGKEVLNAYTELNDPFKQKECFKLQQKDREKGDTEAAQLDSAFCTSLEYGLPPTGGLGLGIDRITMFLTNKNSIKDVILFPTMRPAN

[3] = target: T2, PfKRS (cytosolic lysyl tRNA synthetase); test: isothermal thermal proteome profiling at […] °C in P. falciparum lysate; format: cell-based
Target sequence in this assay (Q8IDJ8 entry or part of it): as the sequence (Q8IDJ8 1-583) above

T1 sequence (Q15046 whole entry): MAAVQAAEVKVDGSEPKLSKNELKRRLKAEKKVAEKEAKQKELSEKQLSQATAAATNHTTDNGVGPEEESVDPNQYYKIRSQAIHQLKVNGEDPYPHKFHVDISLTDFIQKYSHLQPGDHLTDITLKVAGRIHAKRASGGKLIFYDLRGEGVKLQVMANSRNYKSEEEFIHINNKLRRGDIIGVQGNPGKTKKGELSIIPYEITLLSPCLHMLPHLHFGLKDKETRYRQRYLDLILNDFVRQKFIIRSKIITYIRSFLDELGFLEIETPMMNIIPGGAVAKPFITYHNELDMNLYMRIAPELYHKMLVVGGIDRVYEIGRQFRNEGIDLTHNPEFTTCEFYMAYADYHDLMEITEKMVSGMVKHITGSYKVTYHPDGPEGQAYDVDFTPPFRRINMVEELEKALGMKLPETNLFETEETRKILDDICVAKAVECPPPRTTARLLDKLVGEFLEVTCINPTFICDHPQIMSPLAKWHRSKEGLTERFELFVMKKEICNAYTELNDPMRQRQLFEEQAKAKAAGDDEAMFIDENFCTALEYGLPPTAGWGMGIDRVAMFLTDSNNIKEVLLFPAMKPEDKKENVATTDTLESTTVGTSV

O=C(NCC1(O)CCC(F)(F)CC1)c1cc(=O)c2cc(F)ccc2o1 [DDD01510706]
IC50 [1]: 20000 nM | IC50 [2]: 240 nM

O=C(NCC1CCCCC1)c1cc(=O)c2cc(F)cc(NS(=O)(=O)c3ccccc3)c2o1 [DDD02354914]
IC50 [1]: 6310 nM | IC50 [2]: 11.7 nM

C[C@H]1CCC[C@H](C[C@H]2Cc3cc(O)cc(O)c3C(=O)O2)O1 [cladosporin]
IC50 [1]: > 100000 nM | isothermal thermal proteome profiling at 57 °C in P. falciparum lysate [3]: The relative abundance of PfKRS was also significantly increased in lysates exposed to cladosporin | IC50 [2]: 47.9 nM

[N-]=[N+]=NCCOCCOCCOCCNC(=O)c1ccc(S(=O)(=O)Nc2cc(F)cc3c(=O)cc(C(=O)NCC4CCCCC4)oc23)cc1 [linker 1]
IC50 [1]: 43700 nM | IC50 [2]: 22.4 nM

— paper PMC9469095, “Toolkit of Approaches To Support Target-Focused Drug Discovery for Plasmodium falciparum Lysyl tRNA Synthetase” (ACS Infectious Diseases, 2022)
